# Source: US11377656B2, “Chemically modified messenger RNA's” (Novartis AG, priority 2016, dated 2022)
# What was measured:
# T7 RNA polymerase = T7 RNA polymerase (Escherichia phage T7, UniProt P00573); assay: In vitro transcription (IVT) of mRNA with modified NTP; type: biochemical; details: modified NTP at 100% substitution of the corresponding natural nucleotide; human leptin template; yield as percent of unmodified mRNA yield
# From the text: The modified synthetic mRNA was generated by in vitro transcription (IVT) incorporating the chemically modified nucleotide triphosphate (NTP) at 100% substitution of the corresponding natural nucleotide. The IVT plasmid template used contained a T7 promoter sequence and the human leptin coding sequence (Protein Accession #NP_000221) flanked by a 5′ untranslated region (UTR) of Tobacco Etch Virus with a strong Kozak sequence, and 2 tandem copies of the human beta-globin 3′UTR (Holtkamp S et al. (2006) Blood 108: 4009-4017) followed by a poly-A tail comprising 120 nucleotides in length.
# A typical in vitro transcription reaction was done using the following protocol:
# The IVT reagents in the Table above were mixed and incubated for 1-2 hours at 37° C. The DNA template was then digested with 0.04 U/μL DNase (New England Biolabs), and incubated for 30 minutes at 37° C. The mRNA was precipitated by adding lithium chloride (LiCl) solution (Ambion, Cat. #AM9480) to a final concentration of 2.81 M and incubating for >1 hour at −20° C. The mixture was centrifuged at 20,000×g for 15 minutes at 4° C., and then the supernatant was removed and the pellet washed with 70% ethanol. After centrifugation for 10 minutes, the ethanol was removed and the pellet was resuspended in nuclease-free water. In cases where the mRNA is used for HPLC purification, a second precipitation was done by adding 10% volume of 3 M sodium acetate pH 5.5 and 1 volume of room temperature isopropanol followed by incubation overnight at −20° C. The mRNA was centrifuged, washed and resuspended as described above. mRNA concentration was quantified using the NanoDrop and analyzed using an Agilent 2100 Bioanalyzer to confirm proper size and quality (i.e. no degradation). The modified mRNA can then be stored at −80° C. until capping.
# HEK293 cells = assay: Modified mRNA transfection and in vitro translation (secreted leptin ELISA); type: cell-based; details: 1.5 micrograms capped leptin mRNA, Lipofectamine 2000, secreted leptin in medium at 24 h post-transfection
# Protocol: Prior to transfection, the cells were seeded at a density 5×10^5 cells per well in 6-well plates. The following day, 1.5 micrograms of capped unmodified or chemically modified leptin mRNA was complexed with Lipofectamine 2000 (Life Technologies) and transfected into cells according to the manufacturer's protocol. At 24 h post-transfection, secreted leptin protein concentration in the culture medium was measured by an Enzyme-linked immunosorbent assay (ELISA) using the Human Leptin Quantikine ELISA kit from R&D Systems (Minneapolis, Minn.). Protein expression levels for chemically modified mRNAs are shown as a percent of the unmodified mRNA level.
# Sequence of T7 RNA polymerase (P00573 whole entry): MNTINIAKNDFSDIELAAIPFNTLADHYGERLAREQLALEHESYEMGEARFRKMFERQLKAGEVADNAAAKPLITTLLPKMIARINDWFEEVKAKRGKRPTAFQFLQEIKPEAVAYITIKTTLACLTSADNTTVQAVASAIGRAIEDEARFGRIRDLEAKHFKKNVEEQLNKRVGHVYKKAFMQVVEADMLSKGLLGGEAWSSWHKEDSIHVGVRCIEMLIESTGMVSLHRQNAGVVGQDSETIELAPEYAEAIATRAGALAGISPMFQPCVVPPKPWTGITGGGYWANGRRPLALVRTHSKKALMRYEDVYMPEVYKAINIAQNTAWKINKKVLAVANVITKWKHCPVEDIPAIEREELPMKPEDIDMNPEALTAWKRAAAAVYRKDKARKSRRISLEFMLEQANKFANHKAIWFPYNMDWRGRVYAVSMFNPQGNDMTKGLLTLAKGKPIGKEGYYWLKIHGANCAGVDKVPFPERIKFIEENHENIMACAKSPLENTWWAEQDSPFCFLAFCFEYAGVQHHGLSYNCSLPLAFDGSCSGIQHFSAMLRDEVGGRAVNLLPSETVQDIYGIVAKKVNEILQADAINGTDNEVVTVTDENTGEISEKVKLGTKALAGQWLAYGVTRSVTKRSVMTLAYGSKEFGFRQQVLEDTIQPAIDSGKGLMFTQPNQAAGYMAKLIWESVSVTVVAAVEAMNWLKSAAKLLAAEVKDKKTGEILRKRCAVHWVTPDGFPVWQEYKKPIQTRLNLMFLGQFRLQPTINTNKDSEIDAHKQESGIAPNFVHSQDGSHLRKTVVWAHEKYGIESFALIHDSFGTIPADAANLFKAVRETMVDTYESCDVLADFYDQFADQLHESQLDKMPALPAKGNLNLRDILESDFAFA
substance,measurement,setting,value
1-methoxyethyl-pseudouridine [compound 11],In vitro transcription (mRNA quantity relative to unmodified NTP in percentage),T7 RNA polymerase,>50%
same,In vitro translation (Protein quantity relative to unmodified mRNA in percentage),HEK293 cells,<50%
7-methyl-9-deazaguanosine [compound 16],In vitro transcription (mRNA quantity relative to unmodified NTP in percentage),T7 RNA polymerase,>50%
same,In vitro translation (Protein quantity relative to unmodified mRNA in percentage),HEK293 cells,<50%
1-methyoxymethyl-pseudouridine [compound 10],In vitro transcription (mRNA quantity relative to unmodified NTP in percentage),T7 RNA polymerase,>50%
same,In vitro translation (Protein quantity relative to unmodified mRNA in percentage),HEK293 cells,>50%
5-methoxycarbonyamino-uridine [compound 5],In vitro transcription (mRNA quantity relative to unmodified NTP in percentage),T7 RNA polymerase,>50%
same,In vitro translation (Protein quantity relative to unmodified mRNA in percentage),HEK293 cells,<50%
